Results reported in patent US12606541B2, “PPARg modulators and methods of use” (Eisai R&D Management Co., Ltd., priority 2020, dated 2026).

Biological target: T1, His6-TEV-PPARγ-(234-505) (Homo sapiens, UniProt P37231)
T1 construct: The His6-TEV-PPARγ-(234-505) protein for assay was expressed and purified; TEV cleavage site (N); made in house
T1 sequence (P37231 234-505): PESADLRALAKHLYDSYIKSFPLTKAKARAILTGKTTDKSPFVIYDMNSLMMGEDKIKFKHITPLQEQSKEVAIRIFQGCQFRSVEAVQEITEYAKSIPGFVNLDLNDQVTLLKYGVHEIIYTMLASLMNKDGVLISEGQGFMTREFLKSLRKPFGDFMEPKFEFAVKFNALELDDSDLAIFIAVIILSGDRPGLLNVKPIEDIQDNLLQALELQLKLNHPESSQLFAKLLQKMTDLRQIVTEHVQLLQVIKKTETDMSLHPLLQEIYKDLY
Experiment: TR-FRET Assay to Measure Co-R Peptide Recruitment to PPARγ
Assay type: biochemical
Conditions: Co-R peptide recruitment to PPARγ; read-out: TR-FRET AC50
In short: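 Corepressor recruitment is measured by adding terbium-labeled anti-His antibody and FITC SMRT-ID2 peptide, at 5 and 200 nM final, after a 20-minute room-temperature protein–compound incubation. After one further hour, signal is converted to percent response between DMSO and 500 nM T0070907 wells.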

With COc1cc(-c2cc(C(=O)N3CCC(C(=O)NC4CCC(F)(F)CC4)CC3)n[nH]2)ccn1 [N-(4,4-difluorocyclohexyl)-1-[5-(2-methoxypyridin-4-yl)-1H-pyrazole-3-carbonyl]piperidine-4-carboxamide] as the molecule, how does the AC50 read?
The AC50 was over 1000 nM.

Which AC50 does the source give for O=C(NC1CCC(F)(F)CC1)C1CCN(C(=O)c2cc(-c3ccncc3)[nH]n2)CC1 [N-(4,4-difluorocyclohexyl)-1-[5-(pyridin-4-yl)-1H-pyrazole-3-carbonyl]piperidine-4-carboxamide] here?
Its AC50 is over 1000 nM.

How did the AC50 turn out when COc1cc(-c2cc(C(=O)N3CCC(C(=O)NC4CCC(C)(C)CC4)CC3)n[nH]2)ccn1 [N-(4,4-dimethylcyclohexyl)-1-[5-(2-methoxypyridin-4-yl)-1H-pyrazole-3-carbonyl]piperidine-4-carboxamide] was run?
The AC50 was over 1000 nM.

O=C(Nc1ccc(Cl)cc1)C1CCCN(C(=O)c2cc(-c3ccncc3)[nH]n2)C1 (centres unmarked) [N-(4-chlorophenyl)-1-[5-(pyridin-4-yl)-1H-pyrazole-3-carbonyl]piperidine-3-carboxamide] was tested. Which AC50 did it give?
The AC50 was over 1000 nM.

For O=C(Nc1ccc(Cl)cc1)C1CCN(C(=O)c2cc(-c3ccncc3)[nH]n2)CC1 [N-(4-chlorophenyl)-1-[5-(pyridin-4-yl)-1H-pyrazole-3-carbonyl]piperidine-4-carboxamide], which AC50 is on record?
Its AC50 is over 1000 nM.

Which AC50 does the source give for COc1ccc(NC(=O)C2CCN(C(=O)c3cc(-c4ccncc4)[nH]n3)CC2)c(C)c1 [N-(4-methoxy-2-methylphenyl)-1-[5-(pyridin-4-yl)-1H-pyrazole-3-carbonyl]piperidine-4-carboxamide] here?
The AC50 was over 1000 nM.

COC1CCC(NC(=O)C2CCN(C(=O)c3cc(-c4ccncc4)[nH]n3)CC2)CC1 (centres unmarked) [N-(4-methoxycyclohexyl)-1-[5-(pyridin-4-yl)-1H-pyrazole-3-carbonyl]piperidine-4-carboxamide] was tested. Which AC50 did it give?
The AC50 was over 1000 nM.

COc1ccc(NC(=O)C2CCN(C(=O)c3cc(-c4ccncc4)[nH]n3)CC2)cc1 [N-(4-methoxyphenyl)-1-[5-(pyridin-4-yl)-1H-pyrazole-3-carbonyl]piperidine-4-carboxamide] was tested. Which AC50 did it give?
Its AC50 is over 1000 nM.

For COc1ccnc(NC(=O)C2CCN(C(=O)c3cc(-c4ccncc4)[nH]n3)CC2)c1 [N-(4-methoxypyridin-2-yl)-1-[5-(pyridin-4-yl)-1H-pyrazole-3-carbonyl]piperidine-4-carboxamide], which AC50 is on record?
The AC50 was over 1000 nM.

For CC1CCC(NC(=O)C2CCN(C(=O)c3cc(-c4ccncc4)[nH]n3)CC2)CC1 (centres unmarked) [N-(4-methylcyclohexyl)-1-[5-(pyridin-4-yl)-1H-pyrazole-3-carbonyl]piperidine-4-carboxamide], which AC50 is on record?
The AC50 was over 1000 nM.

How did the AC50 turn out when CC1CCC(NC(=O)C2CCN(C(=O)c3cc(-c4ccncn4)[nH]n3)CC2)CC1 (centres unmarked) [N-(4-methylcyclohexyl)-1-[5-(pyrimidin-4-yl)-1H-pyrazole-3-carbonyl]piperidine-4-carboxamide] was run?
The AC50 was over 1000 nM.

Which AC50 does the source give for CC1CCC(NC(=O)C2CCN(C(=O)c3cc(-c4ccnc(N5CCCC5)c4)[nH]n3)CC2)CC1 (centres unmarked) [N-(4-methylcyclohexyl)-1-{5-[2-(pyrrolidin-1-yl)pyridin-4-yl]-1H-pyrazole-3-carbonyl}piperidine-4-carboxamide] here?
Its AC50 is over 1000 nM.

Which AC50 does the source give for CC1CCC(NC(=O)C2CCN(C(=O)c3cc(-c4ccnc(C(F)(F)F)c4)[nH]n3)CC2)CC1 (centres unmarked) [N-(4-methylcyclohexyl)-1-{5-[2-(trifluoromethyl)pyridin-4-yl]-1H-pyrazole-3-carbonyl}piperidine-4-carboxamide] here?
The AC50 was over 1000 nM.

How did the AC50 turn out when CC1(NC(=O)C2CCN(C(=O)c3cc(-c4ccncc4)[nH]n3)CC2)CCOCC1 [N-(4-methyloxan-4-yl)-1-[5-(pyridin-4-yl)-1H-pyrazole-3-carbonyl]piperidine-4-carboxamide] was run?
Its AC50 is over 1000 nM.

Which AC50 does the source give for Cc1ccc(NC(=O)C2CCN(C(=O)c3cc(-c4ccncc4)[nH]n3)CC2)cc1 [N-(4-methylphenyl)-1-[5-(pyridin-4-yl)-1H-pyrazole-3-carbonyl]piperidine-4-carboxamide] here?
Its AC50 is over 1000 nM.

For O=C(NC1CCC(c2ccccc2)CC1)C1CCN(C(=O)c2cc(-c3cccnc3)[nH]n2)CC1 (centres unmarked) [N-(4-phenylcyclohexyl)-1-[5-(pyridin-3-yl)-1H-pyrazole-3-carbonyl]piperidine-4-carboxamide], which AC50 is on record?
Its AC50 is over 1000 nM.

With O=C(NC1CCC(c2ccccc2)CC1)C1CCN(C(=O)c2cc(-c3ccncc3)[nH]n2)CC1 (centres unmarked) [N-(4-phenylcyclohexyl)-1-[5-(pyridin-4-yl)-1H-pyrazole-3-carbonyl]piperidine-4-carboxamide] as the molecule, how does the AC50 read?
Its AC50 is over 1000 nM.

For O=C(Nc1ccc(F)cn1)C1CCN(C(=O)c2cc(-c3ccncc3)[nH]n2)CC1 [N-(5-fluoropyridin-2-yl)-1-[5-(pyridin-4-yl)-1H-pyrazole-3-carbonyl]piperidine-4-carboxamide], which AC50 is on record?
The AC50 was over 1000 nM.

How did the AC50 turn out when Cc1ccc(NC(=O)C2CCN(C(=O)c3cc(-c4ccncc4)[nH]n3)CC2)nn1 [N-(6-methylpyridazin-3-yl)-1-[5-(pyridin-4-yl)-1H-pyrazole-3-carbonyl]piperidine-4-carboxamide] was run?
The AC50 was over 1000 nM.

Which AC50 does the source give for O=C(NCC1CC1)C1CCN(C(=O)c2cc(-c3ccncc3)[nH]n2)CC1 [N-(cyclopropylmethyl)-1-[5-(pyridin-4-yl)-1H-pyrazole-3-carbonyl]piperidine-4-carboxamide] here?
The AC50 was over 1000 nM.

With O=C(NC1CCOCC1)C1CCN(C(=O)c2cc(-c3ccncc3)[nH]n2)CC1 [N-(oxan-4-yl)-1-[5-(pyridin-4-yl)-1H-pyrazole-3-carbonyl]piperidine-4-carboxamide] as the molecule, how does the AC50 read?
The AC50 was over 1000 nM.

With CCC(CC)NC(=O)C1CCN(C(=O)c2cc(-c3ccncc3)[nH]n2)CC1 [N-(pentan-3-yl)-1-[5-(pyridin-4-yl)-1H-pyrazole-3-carbonyl]piperidine-4-carboxamide] as the molecule, how does the AC50 read?
Its AC50 is over 1000 nM.

For O=C(Nc1cccnn1)C1CCN(C(=O)c2cc(-c3ccncc3)[nH]n2)CC1 [N-(pyridazin-3-yl)-1-[5-(pyridin-4-yl)-1H-pyrazole-3-carbonyl]piperidine-4-carboxamide], which AC50 is on record?
Its AC50 is over 1000 nM.

How did the AC50 turn out when O=C(NCc1cnc2c(c1)CCC2)C1CCN(C(=O)c2cc(-c3ccncc3)[nH]n2)CC1 [N-({5H,6H,7H-cyclopenta[b]pyridin-3-yl}methyl)-1-[5-(pyridin-4-yl)-1H-pyrazole-3-carbonyl]piperidine-4-carboxamide] was run?
Its AC50 is over 1000 nM.

Which AC50 does the source give for O=C(NC1(c2cccc(Cl)c2)CC1)C1CCN(C(=O)c2cc(-c3ccncc3)[nH]n2)CC1 [N-[1-(3-chlorophenyl)cyclopropyl]-1-[5-(pyridin-4-yl)-1H-pyrazole-3-carbonyl]piperidine-4-carboxamide] here?
Its AC50 is over 1000 nM.

How did the AC50 turn out when CN(C)CCNC(=O)C1CCN(C(=O)c2cc(-c3ccncc3)[nH]n2)CC1 [N-[2-(dimethylamino)ethyl]-1-[5-(pyridin-4-yl)-1H-pyrazole-3-carbonyl]piperidine-4-carboxamide] was run?
The AC50 was over 1000 nM.

CN(C)CCCNC(=O)C1CCN(C(=O)c2cc(-c3ccncc3)[nH]n2)CC1 [N-[3-(dimethylamino)propyl]-1-[5-(pyridin-4-yl)-1H-pyrazole-3-carbonyl]piperidine-4-carboxamide] was tested. Which AC50 did it give?
The AC50 was over 1000 nM.

O=C(NCCCN1CCOCC1)C1CCN(C(=O)c2cc(-c3ccncc3)[nH]n2)CC1 [N-[3-(morpholin-4-yl)propyl]-1-[5-(pyridin-4-yl)-1H-pyrazole-3-carbonyl]piperidine-4-carboxamide] was tested. Which AC50 did it give?
The AC50 was over 1000 nM.

Which AC50 does the source give for O=C(NC1CCC(CCO)CC1)C1CCN(C(=O)c2cc(-c3ccncc3)[nH]n2)CC1 (centres unmarked) [N-[4-(2-hydroxyethyl)cyclohexyl]-1-[5-(pyridin-4-yl)-1H-pyrazole-3-carbonyl]piperidine-4-carboxamide] here?
Its AC50 is over 1000 nM.
